Source: US4159328A, “Tetrahydro-1,3,5-thiadiazin-4-one derivative” (Nihon Nohyaku Co., Ltd., priority 1977, dated 1979)

Experiments:
[1] = tested on: larvae of brown planthopper (Nilaparvata lugens Stahl); experiment: Test Example 1: insecticidal activity against larvae of brown planthopper; format: in vivo; details: 120 h, third-instar larvae, 25° C., 5 days after treatment
Protocol: Insecticidal activity against larvae of brown planthopper (Nilaparvata lugens Stahl).
Testing method: Five rice seedlings of the 1.5 leaf age were dipped in a test composition of 400 ppm concentration for 30 seconds. After air-drying, the seedlings were placed in a glass tube containing 1 ml of water and infested with five third-instar larvae of brown planthopper. The glass tube was left standing in a constant temperature cabinet at 25° C. and 5 or 7 days after the treatment, dead-and-survival was observed. Mortality was calculated from the results of 3-replication test.

[2] = tested on: two-spotted spider mite (Tetranychus urticae Koch); experiment: Test Example 3: activity to two-spotted spider mite; format: in vivo; details: 120 h, 1,000 ppm, 5 days after treatment
Text: Activity to two-spotted spider mite (Tetranychus urticae Koch).
Testing method: Two-spotted spider mites were set free on the pot-planted soybean in a greenhouse. On the next day, a test composition of 1,000 ppm concentration was sprayed over the soybean by means of a spray gun. Two days or five days after the treatment, dead-and-survival was inspected to calculate the mortality.

SMILES | mortality at 400 ppm [1] | mortality at 1000 ppm [2]
CC(C)N1C(=O)N(c2cc(Cl)ccc2Cl)CSC1=NC(C)(C)C [Compound 427] | 100% | 100%
CCC(C)N1C(=O)N(c2cccc(C)c2C)CSC1=NC(C)(C)C (centres unmarked) [Compound 385] | 100% | 100%
CCC(C)N1C(=O)N(c2ccc(C)cc2C)CSC1=NC(C)(C)C (centres unmarked) [Compound 380] | 100% | 100%
CC(C)N=C1SCN(c2ccccc2Cl)C(=O)N1Cc1ccco1 [Compound 255] | 100% | 100%
C=CCN=C1SCN(c2ccc(F)cc2)C(=O)N1C [Compound 289] | 100% | 100%
Cc1ccc(N2CSC(=NC(C)C)N(C)C2=O)c(C)c1 [Compound 377, 2-Isopropylimino-3-methyl-5-(2,4-dimethyl-phenyl)-tetrahydro-1,3,5-thiadiazin-4-one] | 100% | 100%
CC(C)N=C1SCN(c2ccccc2C(C)C)C(=O)N1C(C)C [Compound 342] | 100% | 
CCCCCCN1C(=O)N(c2cccc(Cl)c2)CSC1=NC(C)C [Compound 234] | 100% | 
C=CCN1C(=O)N(c2ccccc2C)CSC1=NC(C)(C)C [Compound 300] | 100% | 90%
COc1ccccc1N1CSC(=NC(C)(C)C)N(C(C)C)C1=O [Compound 360] | 100% | 
C=CCN1C(=O)N(c2ccc(OC)cc2)CSC1=NC(C)C [Compound 350] | 100% | 100%
CC(C)c1ccccc1N1CSC(=NC(C)(C)C)N(C(C)C)C1=O [Compound 343, 2-t-Butylimino-3-isopropyl-5-(o-isopropyl)-phenyl-tetrahydro-1,3,5-thiadiazin-4-one] | 100% | 
CCN=C1SCN(c2cccc(C(F)(F)F)c2)C(=O)N1CC [Compound 260] | 60% | 100%
CCN1C(=O)N(c2cccc(C)c2C)CSC1=NC1CCCCC1 [Compound 382, 2-cyclohexylimino-3-ethyl-5-(2,3-dimethylphenyl)tetrahydro-1,3,5-thiadiazin-4-one] | 80% | 100%
CC(C)N1C(=O)N(c2ccc(Br)cc2)CSC1=NC(C)(C)C [Compound 294] | 100% | 100%
C=CCN1C(=O)N(c2ccc(Cl)c(Cl)c2)CSC1=NC(C)C [Compound 421] | 60% | 70%
CC(C)N1C(=O)N(c2ccc(Cl)c(Cl)c2)CSC1=NC1CCCCC1 [Compound 425] | 60% | 100%
Cc1cccc(N2CSC(=NC(C)(C)C)N(C(C)C)C2=O)c1C [Compound 384, 2-t-butylimino-3-isopropyl-5-(2,3-dimethylphenyl)-tetrahydro-1,3,5-thiadiazin-4-one] | 100% | 100%
CCN1C(=O)N(c2cc(Cl)ccc2Cl)CSC1=NC(C)(C)C [Compound 426] | 70% | 100%
CCN=C1SCN(c2ccc(OC(C)C)cc2)C(=O)N1CC [Compound 371] | 75% | 100%
COc1ccc(N2CSC(=NC(C)C)N(c3ccc(Cl)c(Cl)c3)C2=O)cc1 [Compound 359] |  | 100%
CCC(C)N=C1SCN(c2ccc(Cl)cc2Cl)C(=O)N1C(C)CC (centres unmarked) [Compound 400] | 100% | 70%
CC(C)N=C1SCN(c2ccc(OC(C)C)cc2)C(=O)N1C [Compound 370, 2-Isopropylimino-3-methyl-5-(p-isopropoxyphenyl)-tetrahydro-1,3,5-thiadiazin-4-one] |  | 100%
CCN=C1SCN(c2c(C)cccc2C)C(=O)N1CC [Compound 390] | 60% | 80%

SMILES | mortality at 400 ppm [1] | mortality at 1000 ppm [2]
CCN1C(=O)N(c2ccccc2C)CSC1=NC(C)(C)C [Compound 299] | 100% | 100%
CC(C)(C)N=C1SCN(c2ccccc2)C(=O)N1Cc1ccccc1 [Compound 159] | 80% | 
Cc1cccc(N2CSC(=NC(C)C)N(C(C)C)C2=O)c1C [Compound 383] | 100% | 100%
C=CCN1C(=O)N(c2ccccc2Cl)CSC1=NC(C)(C)C [Compound 243] | 100% | 
CCC(C)N1C(=O)N(c2ccccc2C(C)C)CSC1=NC(C)(C)C (centres unmarked) [Compound 344] | 100% | 
CCOCCN1C(=O)N(c2ccccc2)CSC1=NC(C)(C)C [Compound 182] | 70% | 
CCN1C(=O)N(c2ccc(Cl)c(Cl)c2)CSC1=NCC(C)C [Compound 419] |  | 100%
CCc1ccc(N2CSC(=NC(C)C)N(C(C)C)C2=O)cc1 [Compound 332] | 100% | 
C=CCN=C1SCN(c2c(CC)cccc2CC)C(=O)N1CC=C [Compound 394] | 70% | 80%
CCc1ccc(N2CSC(=NC(C)(C)C)N(C(C)CC)C2=O)cc1 (centres unmarked) [Compound 334] | 100% | 
Cc1ccc(N2CSC(=NC(C)(C)C)N(C(C)C)C2=O)c(C)c1 [Compound 379, 2-t-butylimino-3-isopropyl-5-(2,4-dimethylphenyl)-tetrahydro-1,3,5-thiadiazin-4-one] | 100% | 100%
CN=C1SCN(c2cccc(C)c2C)C(=O)N1C [Compound 381] | 60% | 70%
CC(C)(C)N=C1NC(=O)N(c2ccc(F)cc2)CS1 [Compound 276] | 100% | 
COCCN1C(=O)N(c2ccccc2)CSC1=NC(C)C [Compound 179] | 90% | 
CCN=C1SCN(c2ccccc2C)C(=O)N1CC [Compound 298] |  | 100%
CC(C)N=C1SCN(c2cc(Cl)cc(Cl)c2)C(=O)N1Cc1ccccc1 [Compound 408, 2-Isopropylimino-3-benzyl-5-(3,5-dichloro-phenyl)-tetrahydro-1,3,5-thiadiazin-4-one] |  | 100%
CCc1ccccc1N1CSC(=NC(C)(C)C)N(C(C)CC)C1=O (centres unmarked) [Compound 339, 2-t-butylimino-3-s-butyl-5-(o-ethylphenyl)-tetrahydro-1,3,5-thiadiazin-4-one] | 100% | 
COCCN1C(=O)N(c2cccc(Cl)c2)CSC1=NC(C)(C)C [Compound 229] | 100% | 
CC(C)N1C(=O)N(c2ccccc2Cl)CSC1=NC1CCCCC1 [Compound 252, 2-Cyclohexylimino-3-isopropyl-5-(o-chlorophenyl)-tetrahydro-1,3,5-thiadiazin-4-one] | 100% | 
CCc1ccccc1N1CSC(=NC)N(C)C1=O [Compound 335] | 80% | 
CC(C)N=C1SCN(c2ccccc2)C(=O)N1c1ccc(F)cc1 [Compound 167] | 70% | 
CCC(C)N=C1SCN(c2ccccc2Cl)C(=O)N1CC(C)C (centres unmarked) [Compound 253] | 80% | 
CCc1ccccc1N1CSC(=NC(C)(C)C)N(C(C)C)C1=O [Compound 338] | 100% | 
CC(C)N=C1NC(=O)N(c2ccc(F)cc2)CS1 [Compound 275] | 100% | 
